In brackets after ≈: the same amount, converted by molar mass.
Columns and labels:
Escherichia coli [1] = experiment: Antibacterial activity against Escherichia coli ATCC 25922 after 24 hrs by broth dilution technique; assay type: functional; conditions: ATCC-25922, 24 h
Escherichia coli [2] = experiment: Antibacterial activity against Escherichia coli ATCC 25922 after 24 hrs by disc diffusion method; assay type: functional
Klebsiella pneumoniae [3] = experiment: Antibacterial activity against Klebsiella pneumoniae clinical isolate after 24 hrs by disc diffusion method; assay type: functional
Streptococcus pyogenes [4] = experiment: Antibacterial activity against Streptococcus pyogenes clinical isolate after 24 hrs by disc diffusion method; assay type: functional
Staphylococcus aureus [5] = experiment: Antibacterial activity against Staphylococcus aureus ATCC 25923 after 24 hrs by disc diffusion method; assay type: functional
Candida albicans [6] = experiment: Antifungal activity against Candida albicans after 3 to 4 days by disc diffusion method; assay type: functional
Aspergillus fumigatus [7] = experiment: Antifungal activity against Aspergillus fumigatus after 3 to 4 days by disc diffusion method; assay type: functional
Candida albicans [8] = experiment: Antifungal activity against Candida albicans after 48 hrs by broth dilution technique; assay type: functional
Aspergillus fumigatus [9] = experiment: Antifungal activity against Aspergillus fumigatus after 48 hrs by broth dilution technique; assay type: functional
Pseudomonas aeruginosa [10] = experiment: Antibacterial activity against Pseudomonas aeruginosa ATCC 27853 after 24 hrs by disc diffusion method
Pseudomonas aeruginosa [11] = experiment: Antibacterial activity against Pseudomonas aeruginosa ATCC 27853 after 24 hrs by broth dilution technique; conditions: ATCC-27853, 24 h
Staphylococcus aureus [12] = experiment: Antibacterial activity against Staphylococcus aureus ATCC 25923 after 24 hrs by broth dilution technique; assay type: functional; conditions: ATCC-25923, 24 h
Streptococcus pyogenes [13] = experiment: Antibacterial activity against Streptococcus pyogenes clinical isolate after 24 hrs by broth dilution technique; assay type: functional
Talaromyces marneffei [14] = experiment: Antifungal activity against Penicillium marneffei after 3 to 4 days by disc diffusion method; assay type: functional
[15] = test system: Trichophyton mentagrophytes; experiment: Antifungal activity against Trichophyton mentagrophytes after 3 to 4 days by disc diffusion method; assay type: functional
Talaromyces marneffei [16] = experiment: Antifungal activity against Penicillium marneffei after 48 hrs by broth dilution technique; assay type: functional
[17] = test system: Trichophyton mentagrophytes; experiment: Antifungal activity against Trichophyton mentagrophytes after 48 hrs by broth dilution technique; assay type: functional
Klebsiella pneumoniae [18] = experiment: Antibacterial activity against Klebsiella pneumoniae clinical isolate after 24 hrs by broth dilution technique; assay type: functional

SMILES	MBC (Escherichia coli [1])	MIC (Escherichia coli [1])	diameter of the inhibition zone (DIZ) (Escherichia coli [2])	diameter of the inhibition zone (DIZ) (Klebsiella pneumoniae [3])	diameter of the inhibition zone (DIZ) (Streptococcus pyogenes [4])	diameter of the inhibition zone (DIZ) (Staphylococcus aureus [5])	diameter of the inhibition zone (DIZ) (Candida albicans [6])	diameter of the inhibition zone (DIZ) (Aspergillus fumigatus [7])	MFC (Candida albicans [8])	MIC (Candida albicans [8])	MFC (Aspergillus fumigatus [9])	MIC (Aspergillus fumigatus [9])	diameter of the inhibition zone (DIZ) (Pseudomonas aeruginosa [10])	MBC (Pseudomonas aeruginosa [11])	MIC (Pseudomonas aeruginosa [11])	MBC (Staphylococcus aureus [12])	MIC (Staphylococcus aureus [12])	diameter of the inhibition zone (DIZ) [15]	MFC [17]	MIC [17]	other results
CCCCCCCC/C=C\CCCCCCCC(=O)N(C(=O)NC1CCCCC1)C1CCCCC1	100 µg/mL (≈ 205 µM)	100 µg/mL (≈ 205 µM)	15.4 mm	12.8 mm	13.5 mm	13.4 mm	13.9 mm	9.9 mm	100 µg/mL (≈ 205 µM)	50 µg/mL (≈ 102 µM)	100 µg/mL (≈ 205 µM)	50 µg/mL (≈ 102 µM)	17.2 mm	100 µg/mL (≈ 205 µM)	100 µg/mL (≈ 205 µM)	–	–	–	–	–	–
CCCCCC[C@@H](O)C/C=C\CCCCCCCC(=O)Nc1ccccc1O	100 µg/mL (≈ 257 µM)	25 µg/mL (≈ 64.2 µM)	17.7 mm	14.7 mm	16.1 mm	15.6 mm	16.2 mm	12.8 mm	50 µg/mL (≈ 128 µM)	25 µg/mL (≈ 64.2 µM)	100 µg/mL (≈ 257 µM)	50 µg/mL (≈ 128 µM)	15.2 mm	100 µg/mL (≈ 257 µM)	25 µg/mL (≈ 64.2 µM)	100 µg/mL (≈ 257 µM)	50 µg/mL (≈ 128 µM)	10.5 mm	100 µg/mL (≈ 257 µM)	50 µg/mL (≈ 128 µM)	MBC (Streptococcus pyogenes [13]): 100 µg/mL (≈ 257 µM); MIC (Streptococcus pyogenes [13]): 50 µg/mL (≈ 128 µM); diameter of the inhibition zone (DIZ) (Talaromyces marneffei [14]): 10.1 mm; MFC (Talaromyces marneffei [16]): 100 µg/mL (≈ 257 µM); MIC (Talaromyces marneffei [16]): 50 µg/mL (≈ 128 µM)
CCCCCC[C@@H](O)C/C=C\CCCCCCCC(=O)N(C(=O)NC1CCCCC1)C1CCCCC1	100 µg/mL (≈ 198 µM)	50 µg/mL (≈ 99 µM)	20.7 mm	17.5 mm	19.1 mm	18.5 mm	18.3 mm	14.9 mm	50 µg/mL (≈ 99 µM)	25 µg/mL (≈ 49.5 µM)	100 µg/mL (≈ 198 µM)	25 µg/mL (≈ 49.5 µM)	23.2 mm	100 µg/mL (≈ 198 µM)	50 µg/mL (≈ 99 µM)	100 µg/mL (≈ 198 µM)	50 µg/mL (≈ 99 µM)	13.1 mm	100 µg/mL (≈ 198 µM)	25 µg/mL (≈ 49.5 µM)	MBC (Streptococcus pyogenes [13]): 100 µg/mL (≈ 198 µM); MIC (Streptococcus pyogenes [13]): 50 µg/mL (≈ 99 µM); MBC (Klebsiella pneumoniae [18]): 100 µg/mL (≈ 198 µM); MIC (Klebsiella pneumoniae [18]): 50 µg/mL (≈ 99 µM)
CCCCC/C=C\CC[C@H](O)CCCCCCCC(=O)Nc1ccccc1O	50 µg/mL (≈ 128 µM)	25 µg/mL (≈ 64.2 µM)	20.9 mm	17.8 mm	19.2 mm	18.7 mm	21.4 mm	18.3 mm	25 µg/mL (≈ 64.2 µM)	12.5 µg/mL (≈ 32.1 µM)	50 µg/mL (≈ 128 µM)	25 µg/mL (≈ 64.2 µM)	23.4 mm	25 µg/mL (≈ 64.2 µM)	25 µg/mL (≈ 64.2 µM)	50 µg/mL (≈ 128 µM)	25 µg/mL (≈ 64.2 µM)	15.2 mm	50 µg/mL (≈ 128 µM)	25 µg/mL (≈ 64.2 µM)	MBC (Streptococcus pyogenes [13]): 100 µg/mL (≈ 257 µM); MIC (Streptococcus pyogenes [13]): 50 µg/mL (≈ 128 µM); MBC (Klebsiella pneumoniae [18]): 50 µg/mL (≈ 128 µM); MIC (Klebsiella pneumoniae [18]): 25 µg/mL (≈ 64.2 µM); diameter of the inhibition zone (DIZ) (Talaromyces marneffei [14]): 10.7 mm; MFC (Talaromyces marneffei [16]): 100 µg/mL (≈ 257 µM); MIC (Talaromyces marneffei [16]): 25 µg/mL (≈ 64.2 µM)
CCCCC/C=C\CC[C@H](O)CCCCCCCC(=O)N(C(=O)NC1CCCCC1)C1CCCCC1	100 µg/mL (≈ 198 µM)	50 µg/mL (≈ 99 µM)	23.4 mm	20.6 mm	20.8 mm	19.5 mm	24.2 mm	21.2 mm	12.5 µg/mL (≈ 24.8 µM)	12.5 µg/mL (≈ 24.8 µM)	25 µg/mL (≈ 49.5 µM)	12.5 µg/mL (≈ 24.8 µM)	27.1 mm	100 µg/mL (≈ 198 µM)	25 µg/mL (≈ 49.5 µM)	50 µg/mL (≈ 99 µM)	25 µg/mL (≈ 49.5 µM)	18.3 mm	25 µg/mL (≈ 49.5 µM)	12.5 µg/mL (≈ 24.8 µM)	MBC (Streptococcus pyogenes [13]): 25 µg/mL (≈ 49.5 µM); MIC (Streptococcus pyogenes [13]): 25 µg/mL (≈ 49.5 µM); MBC (Klebsiella pneumoniae [18]): 100 µg/mL (≈ 198 µM); MIC (Klebsiella pneumoniae [18]): 25 µg/mL (≈ 49.5 µM); diameter of the inhibition zone (DIZ) (Talaromyces marneffei [14]): 13.8 mm; MFC (Talaromyces marneffei [16]): 25 µg/mL (≈ 49.5 µM); MIC (Talaromyces marneffei [16]): 12.5 µg/mL (≈ 24.8 µM)
O=C(O)c1cn(C2CC2)c2cc(N3CCNCC3)c(F)cc2c1=O [CIPROFLOXACIN]	–	–	–	–	–	22 mm	–	–	–	–	–	–	32 mm	–	6.5 µg/mL (≈ 19.6 µM)	–	–	–	–	–	–
COC1=CC(=O)C[C@@H](C)[C@]12Oc1c(Cl)c(OC)cc(OC)c1C2=O [GRISEOFULVIN]	–	–	–	–	–	–	30 mm	27 mm	12.5 µg/mL (≈ 35.4 µM)	6.25 µg/mL (≈ 17.7 µM)	12.5 µg/mL (≈ 35.4 µM)	6.25 µg/mL (≈ 17.7 µM)	–	–	–	–	–	24 mm	12.5 µg/mL (≈ 35.4 µM)	6.25 µg/mL (≈ 17.7 µM)	diameter of the inhibition zone (DIZ) (Talaromyces marneffei [14]): 20 mm; MFC (Talaromyces marneffei [16]): 12.5 µg/mL (≈ 35.4 µM); MIC (Talaromyces marneffei [16]): 6.25 µg/mL (≈ 17.7 µM)

Reference: ChEMBL document CHEMBL1759880, “A facile, one-pot synthesis, characterization and antimicrobial activity of o-hydroxy anilide derivatives and 1-substituted-1,3-dicyclohexylurea analogs of long chain carboxylic acids” (2011)
